# Measured values published in publication PMC10620772, “Design, synthesis, and biological evaluation of new pyrimidine-5-carbonitrile derivatives as novel anti-cancer, dual EGFR^WT/COX-2 inhibitors with docking studies” (RSC Advances, 2023).
# What was measured:
# Format in all cases: cell-based, human
# HCT-116 = assay: NCI60 antitumor screening; settings: Homo sapiens; 10 μM single dose; HCT-116 (colon cancer); read-out: growth inhibition percent (GI%)
# UACC-257 = assay: NCI60 antitumor screening; settings: Homo sapiens; 10 μM single dose; UACC-257 (melanoma); read-out: growth inhibition percent (GI%)
# OVCAR-3 = assay: NCI60 antitumor screening; settings: Homo sapiens; 10 μM single dose; OVCAR-3 (ovarian cancer); read-out: growth inhibition percent (GI%)
# SK-OV-3 = assay: NCI60 antitumor screening; settings: Homo sapiens; 10 μM single dose; SK-OV-3 (ovarian cancer); read-out: growth inhibition percent (GI%)
# SK-MEL-2 = assay: NCI60 antitumor screening; settings: Homo sapiens; 10 μM single dose; SK-MEL-2 (melanoma); read-out: growth inhibition percent (GI%)
# T-47D = assay: NCI60 antitumor screening; settings: Homo sapiens, T47D; 10 μM single dose; T-47D (breast cancer); read-out: growth inhibition percent (GI%)
# SN12C = assay: NCI60 antitumor screening; settings: Homo sapiens; 10 μM single dose; SN12C (renal cancer); read-out: growth inhibition percent (GI%)
# HOP-92 = assay: NCI60 antitumor screening; settings: Homo sapiens; 10 μM single dose; HOP-92 (non-small cell lung cancer); read-out: growth inhibition percent (GI%)
# BT-549 = assay: NCI60 antitumor screening; settings: Homo sapiens; 10 μM single dose; BT-549 (breast cancer); read-out: growth inhibition percent (GI%)
# EKVX = assay: NCI60 antitumor screening; settings: Homo sapiens; 10 μM single dose; EKVX (non-small cell lung cancer); read-out: growth inhibition percent (GI%)
# M14 = assay: NCI60 antitumor screening; settings: Homo sapiens; 10 μM single dose; M14 (melanoma); read-out: growth inhibition percent (GI%)
# MDA-MB-231/ATCC = assay: NCI60 antitumor screening; settings: Homo sapiens; 10 μM single dose; MDA-MB-231/ATCC (breast cancer); read-out: growth inhibition percent (GI%)
# DU-145 = assay: NCI60 antitumor screening; settings: Homo sapiens, DU-145; read-out: growth inhibition percent (GI%)
# PC-3 = assay: NCI60 antitumor screening; settings: Homo sapiens; 10 μM single dose; PC-3 (prostate cancer); read-out: growth inhibition percent (GI%)
# SR = assay: NCI60 antitumor screening; settings: for GI%: 10 μM one-dose, Table 1; for inhibition at 10 µM: Homo sapiens, 10 μM single dose, SR (leukaemia), read-out: growth inhibition percent (GI%)
# SK-MEL-28 = assay: NCI60 antitumor screening; settings: Homo sapiens; 10 μM single dose; SK-MEL-28 (melanoma); read-out: growth inhibition percent (GI%)
# MOLT-4 = assay: NCI60 antitumor screening; settings: Homo sapiens; 10 μM single dose; MOLT-4 (leukaemia); read-out: growth inhibition percent (GI%)
# COLO 205 = assay: NCI60 antitumor screening; settings: Homo sapiens; 10 μM single dose; COLO 205 (colon cancer); read-out: growth inhibition percent (GI%)
# KM12 = assay: NCI60 antitumor screening; settings: Homo sapiens; 10 μM single dose; KM12 (colon cancer); read-out: growth inhibition percent (GI%)
# NCI-H23 = assay: NCI60 antitumor screening; settings: Homo sapiens; 10 μM single dose; NCI-H23 (non-small cell lung cancer); read-out: growth inhibition percent (GI%)
# NCI60 cell lines panel = assay: NCI60 antitumor screening, full panel; settings: for inhibition at 10 µM: Homo sapiens, 10 μM single dose, mean over NCI60 cell lines, read-out: Mean growth inhibition percent (GI%); for One-dose activity over the NCI60 panel: 10 μM
# In short: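 Single-concentration screen at 10 μM across the NCI60 panel (leukaemia, NSCLC, colon, CNS, melanoma, ovarian, renal, prostate, breast). Results are expressed as percent growth inhibition (GI%) of treated lines.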
# HS 578T = assay: NCI60 antitumor screening; settings: for GI%: 10 μM one-dose, Table 1; for inhibition at 10 µM: Homo sapiens, 10 μM single dose, HS 578T (breast cancer), read-out: growth inhibition percent (GI%)
# SF-295 = assay: NCI60 antitumor screening; settings: Homo sapiens; 10 μM single dose; SF-295 (CNS cancer); read-out: growth inhibition percent (GI%)
structure (smiles),measurement,setting,value
"CN1CCN(c2nc(SCc3ccccc3)nc(-c3ccc(F)cc3)c2C#N)CC1 [4i, 2-(Benzylthio)-4-(4-fluorophenyl)-6-(4-methylpiperazin-1-yl) pyrimidine-5-carbonitrile]",inhibition at 10 µM,HCT-116,45.8%
same,inhibition at 10 µM,UACC-257,27.8%
same,inhibition at 10 µM,OVCAR-3,14.4%
same,inhibition at 10 µM,SK-OV-3,< 10%
same,inhibition at 10 µM,SK-MEL-2,< 10%
same,inhibition at 10 µM,T-47D,42.5%
same,inhibition at 10 µM,SN12C,12.6%
same,inhibition at 10 µM,HOP-92,22.7%
same,inhibition at 10 µM,BT-549,< 10%
same,inhibition at 10 µM,EKVX,20.2%
same,inhibition at 10 µM,M14,18.1%
same,inhibition at 10 µM,MDA-MB-231/ATCC,15.9%
same,inhibition at 10 µM,DU-145,< 10%
same,inhibition at 10 µM,PC-3,31.9%
same,GI%,SR,70.98%
same,inhibition at 10 µM,SR,71%
same,inhibition at 10 µM,SK-MEL-28,< 10%
same,inhibition at 10 µM,MOLT-4,49.8%
same,inhibition at 10 µM,COLO 205,13.6%
same,inhibition at 10 µM,KM12,19.1%
same,inhibition at 10 µM,NCI-H23,< 10%
same,inhibition at 10 µM,NCI60 cell lines panel,24.3%
same,GI%,HS 578T,— (GI value > 70%)
same,inhibition at 10 µM,HS 578T,32%
same,inhibition at 10 µM,SF-295,12.3%
"CN1CCN(c2nc(SCc3ccc(F)cc3)nc(-c3ccc(F)cc3)c2C#N)CC1 [4j, 2-((4-Fluorobenzyl)thio)-4-(4-fluorophenyl)-6-(4-methylpiperazin-1-yl)pyrimidine-5-carbonitrile]",inhibition at 10 µM,HCT-116,25.3%
same,inhibition at 10 µM,UACC-257,< 10%
same,inhibition at 10 µM,OVCAR-3,16.1%
same,inhibition at 10 µM,SK-OV-3,55.5%
same,inhibition at 10 µM,SK-MEL-2,< 10%
same,inhibition at 10 µM,T-47D,18.3%
same,inhibition at 10 µM,SN12C,20.5%
same,inhibition at 10 µM,HOP-92,66.2%
same,inhibition at 10 µM,BT-549,32%
same,inhibition at 10 µM,EKVX,18.4%
same,inhibition at 10 µM,M14,10.4%
same,inhibition at 10 µM,MDA-MB-231/ATCC,45.8%
same,inhibition at 10 µM,DU-145,< 10%
same,inhibition at 10 µM,PC-3,32.3%
same,GI%,SR,— (GI value > 70%)
same,inhibition at 10 µM,SR,< 10%
same,inhibition at 10 µM,SK-MEL-28,16.2%
same,inhibition at 10 µM,MOLT-4,< 10%
same,inhibition at 10 µM,COLO 205,< 10%
same,inhibition at 10 µM,KM12,< 10%
same,inhibition at 10 µM,NCI-H23,22.2%
same,inhibition at 10 µM,NCI60 cell lines panel,25.1%
same,GI%,HS 578T,— (GI value > 70%)
same,inhibition at 10 µM,HS 578T,60.4%
same,inhibition at 10 µM,SF-295,56.8%
"CN1CCN(c2nc(SCc3ccc([N+](=O)[O-])cc3)nc(-c3ccc(F)cc3)c2C#N)CC1 [4k, 4-(4-Fluorophenyl)-6-(4-methylpiperazin-1-yl)-2-((4-nitrobenzyl)thio)pyrimidine-5-carbonitrile]",inhibition at 10 µM,HCT-116,18.4%
same,inhibition at 10 µM,UACC-257,< 10%
same,inhibition at 10 µM,OVCAR-3,< 10%
same,inhibition at 10 µM,SK-OV-3,20.9%
same,inhibition at 10 µM,SK-MEL-2,< 10%
same,inhibition at 10 µM,T-47D,28.6%
same,inhibition at 10 µM,SN12C,15.8%
same,inhibition at 10 µM,HOP-92,47%
same,inhibition at 10 µM,BT-549,46.5%
same,inhibition at 10 µM,EKVX,22.4%
same,inhibition at 10 µM,M14,< 10%
same,inhibition at 10 µM,MDA-MB-231/ATCC,35.1%
same,inhibition at 10 µM,DU-145,< 10%
same,inhibition at 10 µM,PC-3,25.9%
same,inhibition at 10 µM,SR,< 10%
same,inhibition at 10 µM,SK-MEL-28,14.4%
same,inhibition at 10 µM,MOLT-4,17.6%
same,inhibition at 10 µM,COLO 205,< 10%
same,inhibition at 10 µM,KM12,< 10%
same,inhibition at 10 µM,NCI-H23,19.7%
same,One-dose activity over the NCI60 panel,NCI60 cell lines panel,moderate activity against numerous cell lines
same,inhibition at 10 µM,NCI60 cell lines panel,17.5%
same,inhibition at 10 µM,HS 578T,42.6%
same,inhibition at 10 µM,SF-295,29.3%
"Cc1ccc(CSc2nc(-c3ccc(F)cc3)c(C#N)c(N3CCN(C)CC3)n2)cc1 [4l, 4-(4-Fluorophenyl)-2-((4-methylbenzyl)thio)-6-(4-methylpiperazin-1-yl) pyrimidine-5-carbonitrile]",inhibition at 10 µM,HCT-116,13.1%
same,inhibition at 10 µM,UACC-257,< 10%
same,inhibition at 10 µM,OVCAR-3,< 10%
same,inhibition at 10 µM,SK-OV-3,< 10%
same,inhibition at 10 µM,SK-MEL-2,< 10%
same,inhibition at 10 µM,T-47D,18.1%
same,inhibition at 10 µM,SN12C,11.9%
same,inhibition at 10 µM,HOP-92,39.3%
same,inhibition at 10 µM,BT-549,10.8%
same,inhibition at 10 µM,EKVX,12.5%
same,inhibition at 10 µM,M14,< 10%
same,inhibition at 10 µM,MDA-MB-231/ATCC,28.9%
same,inhibition at 10 µM,DU-145,< 10%
same,inhibition at 10 µM,PC-3,24.2%
same,inhibition at 10 µM,SR,< 10%
same,inhibition at 10 µM,SK-MEL-28,< 10%
same,inhibition at 10 µM,MOLT-4,10.5%
same,inhibition at 10 µM,COLO 205,< 10%
same,inhibition at 10 µM,KM12,< 10%
same,inhibition at 10 µM,NCI-H23,< 10%
same,One-dose activity over the NCI60 panel,NCI60 cell lines panel,moderate activity against numerous cell lines
same,inhibition at 10 µM,NCI60 cell lines panel,11.2%
same,inhibition at 10 µM,HS 578T,31.1%
same,inhibition at 10 µM,SF-295,17.6%
